Results: US20240150339A1, “Compounds and Their Use as PDE4 Activators” (Mironid Limited, priority 2021, published 2024)

biological target: T1, PDE4D5 (Homo sapiens, UniProt Q08499); assay: PDE assay, activation of full-length human PDE4D5 long form ([3H]cAMP radio-assay); assay type: biochemical; settings: 30 μM test compound; mean % increase in counts over basal activity
T1 construct: Using Full-Length Human PDE4 Isoforms: Long Forms PDE4D5, PDE4C3, PDE4B1 and Short Form PDE4B2; made in house; cytosol fraction of the cell lysate, not purified
T1 sequence (Q08499 1-745 isoform Q08499-6): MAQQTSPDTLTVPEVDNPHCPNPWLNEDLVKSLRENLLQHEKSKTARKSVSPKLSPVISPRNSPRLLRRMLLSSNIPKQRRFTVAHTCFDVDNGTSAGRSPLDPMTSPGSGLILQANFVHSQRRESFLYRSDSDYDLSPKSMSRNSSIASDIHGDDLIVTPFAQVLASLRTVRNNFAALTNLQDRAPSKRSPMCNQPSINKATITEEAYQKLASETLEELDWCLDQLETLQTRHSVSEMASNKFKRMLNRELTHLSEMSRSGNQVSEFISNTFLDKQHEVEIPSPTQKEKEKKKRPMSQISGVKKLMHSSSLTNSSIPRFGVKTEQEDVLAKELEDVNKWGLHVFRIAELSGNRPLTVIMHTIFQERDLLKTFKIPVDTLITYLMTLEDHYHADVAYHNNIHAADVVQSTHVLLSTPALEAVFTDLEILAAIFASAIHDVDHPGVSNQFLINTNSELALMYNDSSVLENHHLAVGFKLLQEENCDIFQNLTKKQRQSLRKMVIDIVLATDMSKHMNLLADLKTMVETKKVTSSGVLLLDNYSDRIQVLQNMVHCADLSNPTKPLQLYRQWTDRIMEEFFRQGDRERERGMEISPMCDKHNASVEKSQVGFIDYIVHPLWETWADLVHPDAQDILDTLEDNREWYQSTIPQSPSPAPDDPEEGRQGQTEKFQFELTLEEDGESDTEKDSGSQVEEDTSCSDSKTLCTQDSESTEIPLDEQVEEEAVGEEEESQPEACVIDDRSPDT
From the text: Experiment 1: Measurement of Modulation of Enzyme Activity by PDE4 Long Form Activators of the Present Invention Using Full-Length Human PDE4 Isoforms: Long Forms PDE4D5, PDE4C3, PDE4B1 and Short Form PDE4B2
(Marchmont, R. J. and Houslay, M. D. Biochem. J. 187: 381-92, 1980)
For transient transfection of exogenous PDE4 long isoforms, HEK 293 cells were transfected with pcDNA3.1 or pDEST™ PDE4 expression vectors using Lipofectamine LTX/Plus reagent (Invitrogen) as outlined by the manufacturer.
Where stable cell lines were generated the clonal isolates were expanded to obtain cell lines that stably expressed the full-length human PDE4 long isoforms and the full length human PDE4B2 short isoform. These were called the HEK-PDE4D5, HEK-PDE4B1 and HEK-PDE4B2 cell lines, respectively.
HEK-PDE4D5 cells were seeded out in 100 mm plates and incubated at 37° C. in an atmosphere of 5% CO2, 95% air. Cell lysates were prepared using KHEM buffer [50 mM KCl, 10 mM EGTA, 50 mM HEPES (pH 7.2), 1.92 mM MgCl2].
To prepare the cell lysates, the 100 mm plates containing the cells were placed on ice and washed with ice-cold PBS (phosphate buffered saline, pH 7.4). KHEM buffer (500 μl) was added to the cells. Cells were then scraped off the plate and triturated using a needle (BD Microlance™ 0.8, 40 mm). The lysed cells were then centrifuged at 2000 rpm for 10 minutes to remove cell debris and the supernatant (cell lysate containing recombinant PDE4D5) was transferred to a fresh tube and kept on ice.
The cell lysate containing recombinant PDE4D5 was transferred into a centrifuge tube and placed into an ultracentrifuge (BECKMAN COULTER) and spun at high speed (100,000 g) for 30 minutes at 4° C. The cytosol fraction was then collected and its protein amount determined using a BCA protein assay.
PDE assays were performed in thin walled V-bottomed 96-well plates. The assays were performed at a final concentration of 10 mM Tris/5 mM MgCl2 μlus PDE4D5 cell lysate cytosol fraction, containing over-expressed PDE4D5, with and without test compound. The lysate/compound mix were incubated together for 15 min at room temperature on an orbital shaker prior to addition of [^3H] cAMP (final concentration 1 μM [^3H] cAMP; Perkin Elmer) to a final volume of 50 μl per reaction. The reactions were then incubated for 10 minutes at 30° C., terminated by heating for 2 min at 95° C. and allowed to cool. Snake venom (12.5 μl of 1 mg/ml; Crotalus atrox, Sigma) was then added and the plates were agitated and incubated for a further 15 minutes at 30° C. Dowex ion exchange resin (Sigma, chloride form, 200-400 mesh; 200 μl; prepared as a 1:1 Dowex: water stock, thoroughly re-suspended and diluted 2:1 with ethanol) was then added to each well and the plates incubated for 15 min at room temperature on an orbital shaker ensuring sufficient agitation for resin suspension (550 RPM). The reaction mixture was then transferred to a 96 well filter plate (Millipore; […] pore size) and filtered into a receiving 96-well plate to remove the dowex suspension. 30 μL of the filtered solution was then transferred to the wells of an Opti-plate (Perkin Elmer) 96 well assay plate and 120 μl of Microscint 40 scintillation fluid was added. The plate was then placed on an orbital shaker for 10 min at high speed (900 RPM) to mix the sample with scintillation fluid prior to quantitation using a plate based scintillation counter (Top-Count).
The % increase in counts in the presence of test compound at a particular concentration indicates the % increase in enzyme activity at that concentration.

| activation at 30 µM [%] | Compound |
| --- | --- |
| 58 | Cc1ccc(-c2nc3ccc(C(=O)NCc4ccc(F)cc4)cc3s2)cn1 [Example 12, N-(4-fluorobenzyl)-2-(6-methylpyridin-3-yl)benzo[d]thiazole-6-carboxamide] |
| 93 | COc1ccc(CNC(=O)c2ccc3nc(-c4ccc(C)nc4)sc3c2)cc1 [Example 13, N-(4-methoxybenzyl)-2-(6-methylpyridin-3-yl)benzo[d]thiazole-6-carboxamide] |
| 120 | Cc1ccc(-c2nc3ccc(C(=O)NCc4cccc(Cl)c4)cc3s2)cn1 [Example 14, N-(3-chlorobenzyl)-2-(6-methylpyridin-3-yl)benzo[d]thiazole-6-carboxamide] |
| 99 | Cc1ccc(-c2nc3ccc(C(=O)NCc4cccc(F)c4)cc3s2)cn1 [Example 15, N-(3-fluorobenzyl)-2-(6-methylpyridin-3-yl)benzo[d]thiazole-6-carboxamide] |
| 64 | COc1cccc(CNC(=O)c2ccc3nc(-c4ccc(C)nc4)sc3c2)c1 [Example 16, N-(3-methoxybenzyl)-2-(6-methylpyridin-3-yl)benzo[d]thiazole-6-carboxamide] |
| 171 | Cc1ccc(-c2nc3ccc(C(=O)N[C@H]4CCc5ccccc54)cc3s2)cn1 [Example 17, (S)-N-(2,3-dihydro-1H-inden-1-yl)-2-(6-methylpyridin-3-yl)benzo[d]thiazole-6-carboxamide] |
| 142 | Cc1ccc(-c2nc3ccc(C(=O)N[C@@H]4CCc5ccccc54)cc3s2)cn1 [Example 18, (R)-N-(2,3-dihydro-1H-inden-1-yl)-2-(6-methylpyridin-3-yl)benzo[d]thiazole-6-carboxamide] |
| 73 | Cc1ccc(-c2nc3ccc(C(=O)N[C@H]4c5ccccc5C[C@H]4O)cc3s2)cn1 [Example 19, N-((1S,2R)-2-hydroxy-2,3-dihydro-1H-inden-1-yl)-2-(6-methylpyridin-3-yl)benzo[d]thiazole-6-carboxamide] |
| 105 | Cc1ccc(-c2nc3ccc(C(=O)N[C@@H]4c5ccccc5C[C@@H]4O)cc3s2)cn1 [Example 20, N-((1R,2S)-2-hydroxy-2,3-dihydro-1H-inden-1-yl)-2-(6-methylpyridin-3-yl)benzo[d]thiazole-6-carboxamide] |
| 193 | Cc1ccc(-c2nc3ccc(C(=O)N[C@@H]4c5ccccc5C[C@H]4O)cc3s2)cn1 [Example 21, N-((1R,2R)-2-hydroxy-2,3-dihydro-1H-inden-1-yl)-2-(6-methylpyridin-3-yl)benzo[d]thiazole-6-carboxamide] |
| 39 | Cc1ccc(-c2nc3ccc(C(=O)NC4CCCC4)cc3s2)cn1 [Example 22, N-cyclopentyl-2-(6-methylpyridin-3-yl)benzo[d]thiazole-6-carboxamide] |
| 94 | Cc1ccc(-c2nc3ccc(C(=O)N[C@H]4CCCc5ccccc54)cc3s2)cn1 [Example 23, (S)-2-(6-methylpyridin-3-yl)-N-(1,2,3,4-tetrahydronaphthalen-1-yl)benzo[d]thiazole-6-carboxamide] |
| 97 | Cc1ccc(-c2nc3ccc(C(=O)N[C@H]4CCOc5ccccc54)cc3s2)cn1 [Example 24, (S)-N-(chroman-4-yl)-2-(6-methylpyridin-3-yl)benzo[d]thiazole-6-carboxamide] |
| 88 | Cc1ccc(-c2nc3ccc(C(=O)N[C@H]4CCOc5ccccc54)cc3s2)c(C)n1 [Example 26, (S)-N-(chroman-4-yl)-2-(2,6-dimethylpyridin-3-yl)benzo[d]thiazole-6-carboxamide] |
| 154 | O=C(N[C@H]1CCOc2ccccc21)c1ccc2nc(-c3ccc(C4CC4)nc3)sc2c1 [Example 27, (S)-N-(chroman-4-yl)-2-(6-cyclopropylpyridin-3-yl)benzo[d]thiazole-6-carboxamide] |
| 194 | Cc1cncc(-c2nc3ccc(C(=O)N[C@H]4c5ccccc5C[C@@H]4O)cc3s2)c1 [Example 41, N-((1S,2S)-2-hydroxy-2,3-dihydro-1H-inden-1-yl)-2-(5-methylpyridin-3-yl)benzo[d]thiazole-6-carboxamide] |
| 138 | Cc1cncc(-c2nc3ccc(C(=O)N[C@@H]4c5ccccc5C[C@H]4O)cc3s2)c1 [Example 42, N-((1R,2R)-2-hydroxy-2,3-dihydro-1H-inden-1-yl)-2-(5-methylpyridin-3-yl)benzo[d]thiazole-6-carboxamide] |
| 87 | Cc1cncc(-c2nc3ccc(C(=O)N[C@H]4CCCc5ccccc54)cc3s2)c1 [Example 44, (S)-2-(5-methylpyridin-3-yl)-N-(1,2,3,4-tetrahydronaphthalen-1-yl)benzo[d]thiazole-6-carboxamide] |
| 102 | Cc1cncc(-c2nc3ccc(C(=O)N[C@H]4CCOc5ccccc54)cc3s2)c1 [Example 45, (S)-N-(chroman-4-yl)-2-(5-methylpyridin-3-yl)benzo[d]thiazole-6-carboxamide] |
| 106 | O=C(N[C@H]1CCOc2ccccc21)c1ccc2nc(-c3ccncc3)sc2c1 [Example 54, (S)-N-(chroman-4-yl)-2-(pyridin-4-yl)benzo[d]thiazole-6-carboxamide] |
| 100 | Cn1cc(-c2nc3ccc(C(=O)N[C@H]4CCOc5ccccc54)cc3s2)cn1 [Example 57, (S)-N-(chroman-4-yl)-2-(1-methyl-1H-pyrazol-4-yl)benzo[d]thiazole-6-carboxamide] |
| 101 | Cc1cnn(C)c1-c1nc2ccc(C(=O)N[C@H]3CCOc4ccccc43)cc2s1 [Example 58, (S)-N-(chroman-4-yl)-2-(1,4-dimethyl-1H-pyrazol-5-yl)benzo[d]thiazole-6-carboxamide] |
| 122 | Cc1c(-c2nc3ccc(C(=O)N[C@H]4CCOc5ccccc54)cc3s2)cnn1C [Example 60, (S)-N-(chroman-4-yl)-2-(1,5-dimethyl-1H-pyrazol-4-yl)benzo[d]thiazole-6-carboxamide] |
| 133 | O=C(N[C@H]1CCOc2ccccc21)c1ccc2nc(-c3cncc(CO)c3)sc2c1 [Example 62, (S)-N-(chroman-4-yl)-2-(5-(hydroxymethyl)pyridin-3-yl)benzo[d]thiazole-6-carboxamide] |
| 64 | O=C(N[C@H]1CCOc2ccccc21)c1ccc2nc(-c3ccc(C(F)F)nc3)sc2c1 [Example 64, (S)-N-(chroman-4-yl)-2-(6-(difluoromethyl)pyridin-3-yl)benzo[d]thiazole-6-carboxamide] |
| 78 | Cc1ccncc1-c1nc2cc(C(=O)N[C@H]3CCOc4ccccc43)ccc2s1 [Example 66, (S)-N-(chroman-4-yl)-2-(4-methylpyridin-3-yl)benzo[d]thiazole-5-carboxamide] |
| 89 | O=C(N[C@H]1CCOc2ccccc21)c1ccc2sc(-c3cccnc3)nc2c1 [Example 67, (S)-N-(chroman-4-yl)-2-(pyridin-3-yl)benzo[d]thiazole-5-carboxamide] |
| 32 | CCN1CCN(c2nc3ccc(C(=O)N[C@H]4CCOc5ccccc54)cc3s2)CC1 [Example 72, (S)-N-(chroman-4-yl)-2-(4-ethylpiperazin-1-yl)benzo[d]thiazole-6-carboxamide] |
| 57 | O=C(N[C@H]1CCOc2ccccc21)c1ccc2nc(N3CCCCC3)sc2c1 [Example 76, (S)-N-(chroman-4-yl)-2-(piperidin-1-yl)benzo[d]thiazole-6-carboxamide] |

same assay, conditions: concentration response, result in words

| Activation of PDE4D5 (FIG. 1) | Compound |
| --- | --- |
| concentration-dependent activation | Cc1ccncc1-c1nc2cc(C(=O)N[C@H]3CCOc4ccccc43)ccc2s1 [Example 66, (S)-N-(chroman-4-yl)-2-(4-methylpyridin-3-yl)benzo[d]thiazole-5-carboxamide] |
